The record followed here is patent US6939668B2, “Compositions and methods for treatment of lung transplants” (priority 2001, dated 2005).

Common to all, as to format: cell-based
For experiment [1], the system named is B. cepacia. In words: B. cepacia binding to normal human bronchial epithelial (NHBE) cells. To be noted: for % Binding of control / % Inhibition: NHBE cells, mean of 4 experiments (range). As to the method:
Normal human bronchial epithelial (NHBE) cells were grown in 48 well plates. […] Unbound bacteria were removed by washing 6 times with PBS and the bound bacteria were desorbed in 1 ml of 0.5% triton X-100 and quantitated by dilution plating. Results are shown in Table 3 and represent the mean of 4 independent experiments and the values in parenthesis represent the range of experimental values.

Experiment [2] deals with B. cepacia ATCC 25416 (genomovar I). In words: microbe, parasite or virus in culture. More on the design: inhibition: dose or concentration left out as unconfirmed. As to the method: (§1) B. cepacia (10^7-10^8 cfu) in 5 μl was added to the epithelial surface of tracheal explants, incubated for 2 h at 37° C. and gently washed with PBS 5 times to remove unbound bacteria.
(§2) Bound bacteria were desorbed with 0.25% triton X-100, serially diluted and plated on B. cepacia isolation agar, and incubated at 37° C. for 72 hours. Colonies were counted to calculate the number of bacteria bound per explant. When inhibitors were used, explants were incubated with inhibitors for 1 hour prior to the addition of bacteria.
(§3) Tracheal explants were preincubated for 1 hour with dextran 4K or 40K or xylitol. Bacteria (10^7 or 10^8 cfu) were then incubated for 2 hours with the tracheal explants and the number of bound bacteria per explant was determined as described above. Bacterial binding to explants preincubated with culture medium alone was considered as 0% inhibition (FIG. 1, each bar represents the mean of 14 to 17 independent experiments using trachea from 5 to 6 donors. Data were analyzed by the mixed model analysis of variance using MIXED procedure in SAS statistical software).
(§4) Explants were obtained from lungs removed from donors for transplantation. All lungs were preserved using LPD lung preservation solution (Perfadex®, Vitrolife, Gotenberg, Sweden) (Fischer et al. (2001), J. Thorac. Cardiovasc. Surg., v. 121, pp. 594-596). Segments of donor trachea that were trimmed off the lung before implantation were used in this study. Airway explants were prepared from donor tracheal segments, which were cut into approximately 4×4 mm^2 pieces, placed in transwells with the epithelial surface facing up and maintained in BEGM at an air/liquid interface for a maximum of 24 h at 37° C., 5% CO2. To evaluate the morphological status of the airway explants at this time, the explants were fixed in 10% buffered formalin and embedded in agar-paraffin. Five micron thick sections were stained with hematoxylin and eosin and examined under a light microscope (Leica, Scarborough, ON). • Effect of dextrans and xylitol on the viability of B. cepacia: B. cepacia (10^7 cfu) was suspended in BEGM containing 0, 2, 4, 6, 7 or 8% of dextran or xylitol for 2 h and then the number of viable bacteria was determined by colony counting method. • Binding of B. cepacia to airway explants: B. cepacia suspended in PBS (5 μl containing 10^8 cfu) was added in the center of the epithelial surface of airway explants and incubated for 2 h at 37° C., 5% CO2. The explants were washed gently 6 times with sterile PBS to remove unbound bacteria, and bound bacteria desorbed by incubating in 1 ml of 0.25% triton X-100 for 10 min at RT. Samples were serially diluted, and plated on B. cepacia isolation agar (Henry et al. (1997), J. Clin. Microbiol., v. 35, pp. 614-619). After 72 h of incubation at 37° C., bacterial colonies were counted to determine the number of bacteria (cfu) bound per explant.
(§5) In inhibition assays, epithelia of airway explants were pre-incubated with varying concentrations of potential inhibitors, dextran (4, 10 or 40 kDa) or xylitol for 1 h at 37° C., then bacteria were added and the assay continued as described above. Controls (no inhibitor added) in each experiment were set to a value of 100% binding, to calculate the % inhibition caused by inhibitors. Statistical analysis was carried out using Statsview and the unpaired student's t-test was used to calculate the p value. • Immunological detection of bound bacteria or mucin in airway explants: Paraffin sections of airway explants incubated with PBS or B. cepacia in presence or absence of inhibitors were deparaffinized, rehydrated and heated under pressure for 1.5 min in 10 mM citrate buffer pH 6.0 (Shi et al. (1991), J. Histochem. Cytochem., v. 39, pp. 741-748) to retrieve antigenic sites.

Experiment [3] concerns B. cepacia C5393 (genomovar II). In words: microbe, parasite or virus in culture. More on the design: inhibition: dose or concentration left out as unconfirmed. How it is done:
as §1, §2, §3, §4, §5

The test system of experiment [4] is B. cepacia CEP040 (genomovar V). In words: microbe, parasite or virus in culture. More on the design: inhibition: dose or concentration left out as unconfirmed. As to the method:
as §1, §2, §3, §4, §5

The subject of experiment [5] is B. cepacia FC473 (genomovar IV). In words: microbe, parasite or virus in culture. Details: inhibition: dose or concentration left out as unconfirmed. How it is done:
as §1, §2, §3, §4, §5

Experiment [6] has as its system B. cepacia isolate BC7 (genomovar III). In words: microbe, parasite or virus in culture. More on the design: inhibition: dose or concentration left out as unconfirmed. Conditions: for Percent Inhibition of binding to tracheal explants: isolate BC7, genomovar III. How it is done: as §1, §2, §3, §4, §5
Experiment [7] concerns B. cepacia. In words: Effect of dextrans and xylitol on the viability of B. cepacia. To be noted: 60 to 80 mg/ml, 2 h, compared to BEGM alone. As to the method:
as §4, with “To evaluate the morphological status of the airway explants at this time, the explants were fixed in 10% buffered formalin and embedded in agar-paraffin.” left out, “The explants were washed gently 6 times with sterile PBS to remove unbound bacteria, and bound bacteria desorbed by incubating in 1 ml of 0.25% triton X-100 for 10 min at RT. Samples were serially diluted, and plated on B. cepacia isolation agar (Henry et al. (1997), J. Clin. Microbiol., v. 35, pp. 614-619).” left out

[8] abbreviates: Burkholderia cepacia, Epithelial cell, read-out: % Inhibition of B. cepacia isolates binding to tracheal epithelial cells.

Take chitobiose: the “inhibitory effect on binding of B. cepacia to NHBE cells” value (from here on “inhibitory effect on binding”) in the experiment on B. cepacia [1] (0-100 μg/ml) is recorded as “None of these sugars inhibited the binding”.

In the case of `CC(=O)N[C@H]1[C@H](O[C@H]2[C@H](O)[C@@H](NC(C)=O)[C@H](O[C@H]3[C@H](O)[C@@H](NC(C)=O)C(O)O[C@@H]3CO)O[C@@H]2CO)O[C@H](CO)[C@@H](O[C@@H]2O[C@H](CO)[C@@H](O[C@@H]3O[C@H](CO)[C@@H](O[C@@H]4O[C@H](CO)[C@@H](O)[C@H](O)[C@H]4NC(C)=O)[C@H](O)[C@H]3NC(C)=O)[C@H](O)[C@H]2NC(C)=O)[C@@H]1O` (stereo partly shown) [chitohexose], in the experiment on B. cepacia [1] (0-100 μg/ml), the “inhibitory effect on binding” value is listed as “None of these sugars inhibited the binding”.

As for `CC(=O)N[C@@H]1[C@@H](O)[C@H](O[C@@H]2O[C@H](CO)[C@@H](O[C@@H]3O[C@H](CO)[C@@H](O[C@@H]4O[C@H](CO)[C@@H](O[C@@H]5O[C@H](CO)[C@@H](O)[C@H](O)[C@H]5NC(C)=O)[C@H](O)[C@H]4NC(C)=O)[C@H](O)[C@H]3NC(C)=O)[C@H](O)[C@H]2NC(C)=O)[C@@H](CO)O[C@H]1O` [chitopentose], the “inhibitory effect on binding” value in the experiment on B. cepacia [1] (0-100 μg/ml) is on record as “None of these sugars inhibited the binding”.

With `O=C[C@H](O)[C@@H](O)[C@@H](O)[C@H](O)CO` [Galactose], in the experiment with B. cepacia [1] (0 to 1.8%/ml), the “inhibitory effect on binding” value is “None of these sugars inhibited the binding”.

One may read the inhibition as the percentage by which the read-out fell short of the control. On to `OC[C@@H](O)[C@H](O)[C@@H](O)CO` [Xylitol], for which the inhibition in experiment [2] (Burkholderia cepacia, ATCC25416, Epithelial cell, read-out: % Inhibition of B. cepacia isolates binding to tracheal epithelial cells) amounted to 82 ± 1.29%; in experiment [3] (setting [8]), 70 ± 6.78%; in experiment [4] (setting [8]) it was 70 ± 6.75%; in experiment [5] (setting [8]), 70 ± 3.26%; in experiment [6] (setting [8]) it was 58 ± 10.7%. Besides, the “Percent Inhibition of binding to tracheal explants” value was determined as 84% in experiment [2] (isolate ATCC 25416, genomovar I, inhibitor 8%); 68% in experiment [3] (isolate C5393, genomovar II, inhibitor 8%); 64% in experiment [4] (isolate CEP040, genomovar V, inhibitor 8%); 72% in experiment [5] (isolate FC473, genomovar IV, inhibitor 7%); 76% in experiment [6] (inhibitor 7%); 81% in experiment [6] (inhibitor 8%). For the same compound, the “inhibition of binding of BC7 to airway explants (in words)” value in experiment [6] (60 to 80 mg/ml, p<0.005 compared to PBS treated controls, FIG. 4b) was “significantly inhibited the binding”. Further, the inhibition at 80000 µg/mL in experiment [6] (Burkholderia cepacia, read-out: inhibition of binding of B. cepacia isolate BC7 to airway explants) came out at 67%. In experiment [6] (Example 1, FIG. 1, 1 hour preincubation, p value <0.0001), the “inhibition of B. cepacia BC7 binding to tracheal explants (in words)” value was “effective in causing inhibition of bacterial binding”. In addition, the “viability of B. cepacia” value in the experiment on B. cepacia [7] is listed as “no change in viability”. Also, the “% Binding of control” value with B. cepacia [1] (xylitol 6%) is given as 64 (29-105) %; with B. cepacia [1] (xylitol 7%) it was 56 (54-58) %; with B. cepacia [1] (xylitol 8%), 33 (23-43) %; in the experiment with B. cepacia [1] (xylitol 10%), 23 (18-29) %. In addition, the “% Inhibition” value was 36 (0-71) % with B. cepacia [1] (xylitol 6%), 44 (42-44) % with B. cepacia [1] (xylitol 7%), 67 (57-77) % in the experiment with B. cepacia [1] (xylitol 8%) and 77 (71-82) % in the experiment with B. cepacia [1] (xylitol 10%).

As for `N[C@H]1[C@H](O[C@H]2[C@H](O)[C@@H](N)[C@H](O[C@H]3[C@H](O)[C@@H](N)[C@H](O[C@H]4[C@H](O)[C@@H](N)C(O)O[C@@H]4CO)O[C@@H]3CO)O[C@@H]2CO)O[C@H](CO)[C@@H](O)[C@@H]1O` (stereo partly shown) [chitotetraose], the “inhibitory effect on binding” value with B. cepacia [1] (0-100 μg/ml) was “None of these sugars inhibited the binding”.
